Reference: US20260315431A1, “NANOMATERIAL ENCAPSULATED BIOFILM INHIBITORS FOR DENTAL CARIES TREATMENT” (THE UAB RESEARCH FOUNDATION, priority 2023, published 2026)
Entries after “also recorded” stand apart in the source; their conditions may differ.

Key:
[1] = Body weight of animals, PEHA5 / HA5 study; format: in vivo, gnotobiotic rats; settings: 100 μM
Description: (§1) The effect of PEHA5 on S. mutans colonization and virulence was compared side-by-side with HA5 using a well-established gnotobiotic rat model of dental caries^[50-54]. A (vehicle+infection only) group was included as a negative control. All rats from the experimental groups and from the control group were colonized with S. mutans UA159. […] Similar reductions in caries scores were also observed in sulcal caries scores and proximal caries scores (Table 5). We were unable to record the effect of the treatment on dentinal moderate (Dm) and dentinal extensive (Dx) scores in the proximal area due to the absence of dentinal lesions in the control and treated groups.
We used Fischer 344 rats that were bred and maintained in trexler isolators for this experiment. Male and female rat pups were removed from isolators at 20 days of age and randomly assigned into treatment groups of 5 rats/group in cages with filter tops. […] Each sample was serially diluted, plated on blood (BAP) and mitis-salivarius (MS) agar plates and incubated in an environment of 5% CO2 in air at 37° C. to quantify the level of total bacteria and S. mutans present in the plaque. […] After drying, the mandibles were sectioned and scored for caries activity using the Keyes method Caries scores were recorded for the buccal, sulcal and proximal molar surfaces individually so that differences among the surfaces can be distinguished. […]

[2] = biological target: GtfB (Streptococcus mutans, UniProt P08987); assay: HA5/GtfB X-ray co-crystal structure; format: binding; settings: catalytic domain of GtfB
[3] = tested on: S. mutans UA159; assay: Gnotobiotic rat model of dental caries (PEHA5 / HA5 study, Example 2); format: in vivo, gnotobiotic rats infected with S. mutans UA159; design: key to Buccal Mean Caries Scores (±SEM) E / Buccal Mean Caries Scores (±SEM) Ds / Buccal Mean Caries Scores (±SEM) Dm / Buccal Mean Caries Scores (±SEM) Dx / Sulcal Mean Caries Scores (± SEM) E / Sulcal Mean Caries Scores (± SEM) Ds / Sulcal Mean Caries Scores (± SEM) Dm / Sulcal Mean Caries Scores (± SEM) Dx / Proximal Mean Caries Scores (± SEM) E / Proximal Mean Caries Scores (± SEM) Ds: caries scored by the Keyes method; settings: 100 μM
Description: as §1
We used Fischer 344 rats that were bred and maintained in trexler isolators for this experiment. Male and female rat pups were removed from isolators at 20 days of age and randomly assigned into treatment groups of 5 rats/group in cages with filter tops. Rats were then infected with S. mutans UA159 strain by oral swabbing daily for four consecutive days with a fresh overnight culture of S. mutans UA159. Rats were provided with caries promoting Teklad Diet 305 containing […] (Harlan Laboratories, Inc., Indianapolis, IN) and sterile drinking water ad libitum. Oral swabs were taken 5 days post-infection and plated on Todd Hewitt (TH) agar plates and incubated at 37° C. in an environment of 5% CO2 in the air to confirm colonization. Rats were weighed at weaning and then weekly throughout the experiment. One-week post-infection, the molars of the rats were brushed twice daily for 4 weeks with the test compounds using camel-hair brushes. Four treatment groups used in this study were: 1) HA5 (100 μM); 2) […] (100 μM); 3) NaF (250 ppm); and 4) infected untreated rats. Drinking water was withheld for 60 min following each treatment with the compound. Animals were weighed at weaning and at the termination of the experiment. On day 60, the rats were sacrificed using CO2 followed by cervical dislocation or bilateral thoracotomy. The mandibles were surgically removed and cleaned of excess tissue to assess the level of bacteria present and the extent of caries formation. The right mandible from each rat was placed in a tube containing phosphate buffer (3 mL), placed on ice and sonicated (10 sec) to release bacteria from the molars. Each sample was serially diluted, plated on blood (BAP) and mitis-salivarius (MS) agar plates and incubated in an environment of 5% CO2 in air at 37° C. to quantify the level of total bacteria and S. mutans present in the plaque. The right and left mandibles from each rat were then placed in 95% ethanol for 24 h. The mandibles will be cleaned and stained overnight with murexide solution. After drying, the mandibles were sectioned and scored for caries activity using the Keyes method Caries scores were recorded for the buccal, sulcal and proximal molar surfaces individually so that differences among the surfaces can be distinguished. Statistical significance in the mean caries scores, colony-forming units (CFU)/mandible and body weights between groups of rats were determined by one-way analysis of variance (ANOVA) with the Tukey-Kramer multiple comparison test using the InStat program (GraphPad Prism 10.0.2.). When determining the statistical significance between the two groups, an unpaired t-test was applied. Differences between groups were considered significant at a P-value<0.05.

Chain of GtfB (P08987 265-1143): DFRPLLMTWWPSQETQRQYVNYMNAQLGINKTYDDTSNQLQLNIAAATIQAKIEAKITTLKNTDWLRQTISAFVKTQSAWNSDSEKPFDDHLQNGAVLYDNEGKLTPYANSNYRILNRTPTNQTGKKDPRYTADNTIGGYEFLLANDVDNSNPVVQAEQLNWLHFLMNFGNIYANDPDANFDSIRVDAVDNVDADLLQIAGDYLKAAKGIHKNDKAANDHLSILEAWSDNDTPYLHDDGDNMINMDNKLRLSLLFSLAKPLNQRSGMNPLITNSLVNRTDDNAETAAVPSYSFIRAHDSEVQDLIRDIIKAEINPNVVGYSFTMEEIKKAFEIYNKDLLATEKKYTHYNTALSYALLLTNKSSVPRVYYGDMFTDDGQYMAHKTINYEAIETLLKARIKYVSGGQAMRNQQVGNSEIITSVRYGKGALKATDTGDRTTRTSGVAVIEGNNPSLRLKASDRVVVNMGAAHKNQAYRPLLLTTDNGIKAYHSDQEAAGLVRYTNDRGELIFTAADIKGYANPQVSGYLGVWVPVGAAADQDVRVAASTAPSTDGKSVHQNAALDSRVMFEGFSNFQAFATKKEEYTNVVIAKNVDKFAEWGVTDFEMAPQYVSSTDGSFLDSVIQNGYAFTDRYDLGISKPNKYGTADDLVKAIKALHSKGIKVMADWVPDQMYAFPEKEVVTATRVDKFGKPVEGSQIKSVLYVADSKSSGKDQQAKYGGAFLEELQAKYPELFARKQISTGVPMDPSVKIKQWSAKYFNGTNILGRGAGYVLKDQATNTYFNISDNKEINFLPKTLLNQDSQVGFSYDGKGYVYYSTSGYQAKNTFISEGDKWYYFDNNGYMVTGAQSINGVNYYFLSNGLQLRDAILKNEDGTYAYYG

O=C1/C(=C/c2cc(O)c(O)cc2O)Oc2ccccc21 [HA5, 2-[(2′,4′,5′-Trihydroxyphenyl)methylidene]-2,3-dihydro-1-benzofuran-3-one]
Weight [1]: 145 ± 14 g
weight loss ([1]; 4-week treatment): did not experience any weight loss
binding in HA5/GtfB co-crystal structure [2]: binding in the catalytic site of GtfB; also recorded: does not show any covalent bond
effect on bacterial colonization ([3]; 4-week treatment): did not affect bacterial colonization significantly
reduction in caries scores ([3]; 4-week treatment): significant reductions in buccal caries scores
CFU/mL BAP ([3]; Blood agar plate): 5.2 ± 1.4 CFU/mL (×10^5)
CFU/mL MS ([3]; Mitis-Salivarius agar): 5.5 ± 2.6 CFU/mL (×10^5)
Buccal Mean Caries Scores (±SEM) Dx ([3]; dentinal extensive, 4 weeks): 1.4 ± 0.4
Sulcal Mean Caries Scores (± SEM) Dx ([3]; dentinal extensive, 4 weeks): 4.8 ± 0.9
Buccal Mean Caries Scores (±SEM) Dm ([3]; dentinal moderate, 4 weeks): 2.8 ± 0.5
Sulcal Mean Caries Scores (± SEM) Dm ([3]; dentinal moderate, 4 weeks): 9.4 ± 0.5
Buccal Mean Caries Scores (±SEM) Ds ([3]; dentinal slight, 4 weeks): 6.4 ± 1.0
Proximal Mean Caries Scores (± SEM) Ds ([3]; dentinal slight, 4 weeks): 3.4 ± 0.6
Sulcal Mean Caries Scores (± SEM) Ds ([3]; dentinal slight, 4 weeks): 15.0 ± 0.9
Buccal Mean Caries Scores (±SEM) E ([3]; enamel, 4 weeks): 9.0 ± 0.6
Proximal Mean Caries Scores (± SEM) E ([3]; enamel, 4 weeks): 5.2 ± 0.5
Sulcal Mean Caries Scores (± SEM) E ([3]; enamel, 4 weeks): 20.6 ± 0.8
